Laboratory results from ChEMBL document CHEMBL3988442, “University of Dundee, Small-Polar-MMV Screening Library” (2021).

Experiments:
[1] = microbe, parasite or virus in culture; settings: Mycobacterium tuberculosis, 72 h, read-out: pIC50 (converted)
[2] = microbe, parasite or virus in culture; settings: Mycobacterium tuberculosis, 96 h, read-out: pIC50 (converted)

Compound | IC50 [1] | IC50 [2]
CCc1n[nH]c(SCC(=O)Nc2ccc(Br)cn2)n1 | 144 µM | 186 µM
CNc1cc(C(=O)NCC(OC)c2cccs2)ccn1 (centres undefined) | 22.9 µM | > 501 µM
CCN(CCC(N)=O)Cc1cccc2c1OCO2 | 258 µM | 272 µM
CN1CCC(CNC(=O)c2cccc(C(F)(F)F)c2)c2ccccc21 (centres undefined) | 45.5 µM | > 50.1 µM
c1cc(CNCc2ccc(-n3cncn3)nc2)cc(OC2CCCC2)c1 | 35 µM | 33.9 µM
CCSCCOc1ccc(CO)nc1 | 216 µM | > 501 µM
COCC(C)NC(=O)CNc1ccc(OC)c(Br)c1 (centres undefined) | 172 µM | 184 µM
NC1CCCN(Cc2ccccc2)C1 (centres undefined) | 262 µM | > 501 µM
C[C@@]1(O)CCN(C(=O)CN)C[C@@H]1Cc1ccccc1 | 219 µM | 174 µM
CNC(=O)CSCc1nc(-c2ccccc2C)no1 | 134 µM | 156 µM
N#Cc1nc(-c2ccccc2)oc1NCCCO | 243 µM | > 501 µM
CC(NC(=O)CNc1cc(F)cc(Br)c1)C(=O)N(C)C (centres undefined) | 289 µM | > 501 µM
COc1ccc(NC(=O)c2ccc(S(N)(=O)=O)o2)cc1 | > 501 µM | > 501 µM
CN1CCC(N(C)CCC(=O)N2CCC(CCc3ccccc3)CC2)C1 (centres undefined) | 41.5 µM | 35.3 µM
NCC(=O)N(Cc1cccs1)Cc1cccs1 | 114 µM | 68.7 µM
CCOCC(=O)NCC(O)c1cccc(C(F)(F)F)c1 (centres undefined) | > 501 µM | > 501 µM
O=C(CS(=O)(=O)Cc1cccc(Cl)c1)NCC1CC1 | 83.2 µM | 263 µM
Clc1ccc2c(c1)CNCCO2 | 33.4 µM | 67.8 µM
CCCc1nc(N(C)Cc2ccco2)c2c(n1)c(C)nn2CC | 25.2 µM | 12 µM
CCCc1cc(C(=O)NCC2COCCO2)cs1 (centres undefined) | > 501 µM | 124 µM
Cc1ccc(F)c(S(=O)(=O)N2C[C@H](C3CC3)[C@@H](N)C2)c1 | > 501 µM | > 501 µM
CCC(CO)NC(=O)Cc1ccc(NC(=O)CC2=CCCCC2)cc1 (centres undefined) | > 50.1 µM | > 50.1 µM
O=C(Cn1cccn1)N1CCC(Cn2cc(-c3ccsc3)nn2)CC1 | > 50.1 µM | > 50.1 µM
NCc1cccc(C(=O)NCc2ccco2)c1 | > 501 µM | > 501 µM
COc1ccc(C(=O)NCc2ncnn2C)cc1Br | 326 µM | > 501 µM

Compound | IC50 [1] | IC50 [2]
CN(C)c1ccc(CNC(=O)C2CCCO2)cc1 (centres undefined) | 219 µM | 197 µM
NCCNS(=O)(=O)c1ccc(F)c(Br)c1 | > 501 µM | > 501 µM
Cn1ccsc1=NC(=O)c1ccc(OCC(N)=O)cc1 | > 501 µM | > 501 µM
CCNC(=O)C1CCCN(c2ccncc2Cl)C1 (centres undefined) | 129 µM | 281 µM
COCc1ccccc1CNC(=O)c1nc(C)ns1 | 488 µM | 145 µM
Cc1cc(C)c(C#N)c(N2CCOCC(CO)C2)n1 (centres undefined) | > 501 µM | > 501 µM
CN(C)CCN1C(=O)CCC12CCCN(C(=O)c1cccnc1)CC2 (centres undefined) |  | > 50.1 µM
CCSc1ncc(CN2CCN(c3ncc(C)c(N)n3)CC2)cn1 |  | 20.4 µM
O=C1N(c2ccccc2)C[C@H]2CN(C3CCC3)CCN12 | 7.22 µM | 
O=C(c1nn(-c2ccccc2F)cc1O)N1CCC2(CC1)OCCO2 |  | > 50.1 µM
Cc1csc(N2CCCN(CCC(=O)NC(N)=O)CC2)n1 | 39.4 µM | 
CCN(C(=O)CCCOC)C(c1ccc(Cl)cc1)c1ccccn1 (centres undefined) |  | > 50.1 µM
CCOCc1nnc(NCc2ccsc2)o1 |  | 24.8 µM
COCCN(Cc1ccccc1)Cc1nc(-c2ccsc2)no1 | 20.5 µM | 
Cc1cc(F)ccc1CN1CCCC(O)(CN2CCCC2)C1 (centres undefined) | > 50.1 µM | 
O=C(CCC(F)(F)F)NCC1CCCS1 (centres undefined) | 8.35 µM | 
CCCc1nc(CN(CCO)Cc2cc(Br)ccc2F)no1 | 18.9 µM | 
c1ccc(-c2nc3c(c(NCCc4c[nH]cn4)n2)CCNC3)cc1 | 10.9 µM | 
CN1CCCC1c1cc2cccnc2n1Cc1ccc(F)cc1 (centres undefined) |  | > 50.1 µM
CC(Cn1cccn1)NS(=O)(=O)Cc1ccccc1 (centres undefined) | > 50.1 µM | 
Cc1cccc(NCc2ncc(C(C)(C)C)o2)c1 |  | 12 µM
CCc1c(C)nc(-n2nc(-c3cccs3)cc2N)[nH]c1=O | 44 µM | 
CN(CCCOc1ccccc1)C(=O)c1csc(-c2nnc[nH]2)n1 |  | > 50.1 µM
CO[C@H]1C[C@@H]2CN(C(=O)c3ccc(C)s3)C[C@@H]2C1 |  | 22.3 µM
CN1CCN(C(=O)c2cc3sccc3n2Cc2ccc(Cl)cc2)CC1 |  | > 50.1 µM

Compound | IC50 [1] | IC50 [2]
Cc1cccc2cc(CO)c(N3Cc4cnc(C(C)(C)C)nc4C3)nc12 | > 50.1 µM | 
CC(C)CN1Cc2nc(N3CCCC3)ncc2C1=O |  | > 50.1 µM
COc1cccc(CN2CCCC2c2c(C)nn(C)c2C)c1 (centres undefined) | 46.9 µM | 
O=c1oc(-c2ccc(F)cc2)nn1CC1CCOC1 (centres undefined) | 34.3 µM | 
N#Cc1csc(CNCCOc2ccccc2)c1 |  | > 50.1 µM
Fc1ccccc1CN1CCCC2(CCN(c3ncccn3)C2)C1 (centres undefined) | 30.4 µM | 
Cc1nc(CNC(=O)Nc2ccc3c(c2)CCCC(=O)N3)sc1C | > 50.1 µM | 
Cc1cc2c(cc1Cl)C=CC1(CCN(CC(=O)N3CCCC3)CC1)O2 | > 50.1 µM | 
COc1ccc(C[C@H]2CN(C(=O)CN(C)C)CC[C@H]2OC)cc1 |  | > 50.1 µM
COc1cccc(-c2cnc(CNC(C)(C)c3nc(C)cs3)o2)c1 |  | > 50.1 µM
NCCn1nc(C2CCN(C(=O)Cc3ccccc3)C2)c2nccnc21 (centres undefined) |  | > 50.1 µM
Cn1ccc(CN2CCOCC23CCNCC3)n1 |  | > 50.1 µM
CC(=O)N1CCC(N2CCOC[C@H]2c2nc(-c3ccc(Cl)s3)c[nH]2)CC1 |  | > 50.1 µM
Cc1cc(NCCN)nc(-c2ccccc2O)n1 | > 50.1 µM | 
Cc1ccc(NC(=O)c2ncc(C(N)=O)cc2Cl)cc1F | > 50.1 µM | 
CN(C)c1ccc(CNC(=O)c2ccc(Cl)cc2F)cc1 |  | > 50.1 µM
NC1CCS(=O)(=O)c2ccc(Br)cc21 (centres undefined) |  | 89.1 µM
COc1coc(CN2CCCC(CCc3c(F)cccc3F)C2)cc1=O (centres undefined) |  | 9.45 µM
O=C1N(Cc2ccc(F)c(F)c2)CCCC12CCN(C1CCCC1)C2 (centres undefined) | > 50.1 µM | 
Cc1cccc(-c2noc([C@@H]3Cc4nc[nH]c4CN3)n2)c1 | 1.94 µM | 
O=C1N(Cc2ccc(F)cc2)CCCC12CCN(C1CCSCC1)C2 (centres undefined) | > 50.1 µM | 
Cc1cc(CC(=O)NCCCc2ccncc2)on1 | > 501 µM | 
Cc1cnn(-c2cccc(N3CCN(c4cc(C)nc(C)n4)CC3)n2)c1 |  | > 50.1 µM
Cc1nc(-c2cc(F)c3c(c2)CC(CN)O3)c[nH]1 (centres undefined) | 2.55 µM | 
CC(C)CCC(=O)NCC(=O)N1CCCCCC1c1ccco1 (centres undefined) |  | 6.55 µM

Compound | IC50 [1] | IC50 [2]
CCCC1c2cccn2CCN1C(=O)Cn1cnc2sc(C)cc2c1=O (centres undefined) |  | > 50.1 µM
COc1cc(C(=O)NCCc2ccccc2OC)on1 | > 50.1 µM | 
CCNC(=O)CCCC(=O)N1CCc2cc(Cl)cc(Cl)c2C1 | > 50.1 µM | 
Cc1cccnc1CN(C)C(C(=O)O)c1ccc(-c2ccn[nH]2)cc1 (centres undefined) | > 50.1 µM | 
CCc1nc2c(NCC3COc4c(cccc4OC)C3)ncnc2o1 (centres undefined) |  | > 50.1 µM
CCCn1cc(Cl)c(C(=O)N2C[C@@H](O)[C@H](Oc3ccccc3)C2)n1 | > 50.1 µM | 
CC(C1CC1)N(C)Cc1nnc(-c2ccco2)o1 (centres undefined) |  | > 50.1 µM
Cc1nc(CN2CCC(NS(C)(=O)=O)CC2)co1 | > 50.1 µM | 
Cc1nnc(CN(Cc2ccccc2Br)C2CC2)o1 | 20.1 µM | 
N#CCCCn1nnnc1Cc1ccc(Br)cc1 | > 50.1 µM | 
Cc1cccc(N2CCC3(CCCC(=O)N3)CC2)n1 |  | > 50.1 µM
CNS(=O)(=O)c1cccc(C(C)NCc2ccc(C)c(C)c2)c1 (centres undefined) |  | > 50.1 µM
Cc1noc(C)c1-c1cccc(C2CN(CC(=O)N(C)C)CCO2)n1 (centres undefined) |  | > 50.1 µM
Cc1nn(C)c2c(N3CCN(C)CC3)nc(C3CC3)nc12 | 47.6 µM | 
CN1[C@H](CN2CCCC2)C[C@@H]2CN(C(=O)c3cccn3C)CC[C@@H]21 |  | > 50.1 µM
Cc1cc(N2Cc3cnn(CCO)c3C2)nc(-c2ccccc2O)n1 | > 50.1 µM | 
CO[C@H]1C[C@@H]2CN(C(=O)Cc3ccc(C)s3)C[C@@H]2C1 |  | > 50.1 µM
COc1cnc(C2(O)CCN(C(=O)c3cccnc3)CC2)c(OC)n1 | > 50.1 µM | 
Cc1noc(C[C@@H]2COC[C@H]3CN(C(=O)C4=CCCC4)C[C@@H]23)n1 | > 50.1 µM | 
CCc1nnc(CN(C)CC2CCCCC2)o1 | > 50.1 µM | 
COc1ccc(S(=O)(=O)N2CCC(Cn3ccnc3)CC2)cc1 |  | > 50.1 µM
Cc1ccc(CNCC2Cn3nnc(-c4cccc(F)c4)c3CO2)o1 (centres undefined) | 8.85 µM | 
Cc1ccccc1NC1CCN(C(=O)CCc2ccco2)CC1 | > 50.1 µM | 
